Biological target: T1, NTCP (Homo sapiens, UniProt Q14973)
T1 sequence (Q14973 1-349): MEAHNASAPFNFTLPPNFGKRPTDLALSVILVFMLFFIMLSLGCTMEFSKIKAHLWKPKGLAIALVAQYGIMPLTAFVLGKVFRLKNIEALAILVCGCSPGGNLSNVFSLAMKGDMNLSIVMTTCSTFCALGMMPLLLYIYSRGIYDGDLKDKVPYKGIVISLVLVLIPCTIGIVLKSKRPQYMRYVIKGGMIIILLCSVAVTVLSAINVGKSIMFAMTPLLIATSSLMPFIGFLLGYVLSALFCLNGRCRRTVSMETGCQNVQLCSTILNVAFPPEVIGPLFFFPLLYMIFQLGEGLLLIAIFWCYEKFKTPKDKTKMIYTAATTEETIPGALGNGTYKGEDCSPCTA
Assay: [3H]-TCA uptake assay (NTCP inhibition)
Format: cell-based
Conditions: IC50, given as a range, marked * (asterisk not explained)
Method in brief: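 PTH and HepG2-NTCP cells kept 24 h in PMM to induce NTCP, then exposed 2 h to test compounds or DMSO. Uptake of 1 μM [3H]-taurocholate in Na+ Ringer's buffer (145 mM Na) ran 15 min at 37° C. Cells washed, lysed in 1% Triton X-100, and radioactivity counted by liquid scintillation.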

SMILES | IC50
CCC1NC(=O)C(C2OC(Oc3ccc(Cl)c(OCCOC)c3)CC2C)N(C)C(=O)C(C(C)C)N(C)C(=O)C(CC(C)C)N(C)C(=O)C(CC(C)C)N(C)C(=O)C(C)NC(=O)C(C)NC(=O)C(CC(C)C)N(C)C(=O)C(C(C)C)NC(=O)C(CC(C)C)N(C)C(=O)CN(C)C1=O (centres unmarked) [Compound 45A-o] | 1 to 100 µM
CCC1NC(=O)C(C2OC(Oc3ccc(Cl)c(OCCO)c3)CC2C)N(C)C(=O)C(C(C)C)N(C)C(=O)C(CC(C)C)N(C)C(=O)C(CC(C)C)N(C)C(=O)C(C)NC(=O)C(C)NC(=O)C(CC(C)C)N(C)C(=O)C(C(C)C)NC(=O)C(CC(C)C)N(C)C(=O)CN(C)C1=O (centres unmarked) [Compound 46A-o] | 1 to 100 µM
CCC1NC(=O)C(C2OC(Oc3cccc(NC)c3)CC2C)N(C)C(=O)C(C(C)C)N(C)C(=O)C(CC(C)C)N(C)C(=O)C(CC(C)C)N(C)C(=O)C(C)NC(=O)C(C)NC(=O)C(CC(C)C)N(C)C(=O)C(C(C)C)NC(=O)C(CC(C)C)N(C)C(=O)CN(C)C1=O (centres unmarked) [Compound 47A-o] | 1 to 100 µM
CCC1NC(=O)C(C2OC(Oc3cccc(NCc4ccccc4)c3)CC2C)N(C)C(=O)C(C(C)C)N(C)C(=O)C(CC(C)C)N(C)C(=O)C(CC(C)C)N(C)C(=O)C(C)NC(=O)C(C)NC(=O)C(CC(C)C)N(C)C(=O)C(C(C)C)NC(=O)C(CC(C)C)N(C)C(=O)CN(C)C1=O (centres unmarked) [Compound 48A-o] | 1 to 100 µM
CCC1NC(=O)C(C2OC(Oc3cccc(N(C)CC)c3)CC2C)N(C)C(=O)C(C(C)C)N(C)C(=O)C(CC(C)C)N(C)C(=O)C(CC(C)C)N(C)C(=O)C(C)NC(=O)C(C)NC(=O)C(CC(C)C)N(C)C(=O)C(C(C)C)NC(=O)C(CC(C)C)N(C)C(=O)CN(C)C1=O (centres unmarked) [Compound 49A-o] | 1 to 100 µM
CCCN(C)c1cccc(OC2CC(C)C(C3C(=O)NC(CC)C(=O)N(C)CC(=O)N(C)C(CC(C)C)C(=O)NC(C(C)C)C(=O)N(C)C(CC(C)C)C(=O)NC(C)C(=O)NC(C)C(=O)N(C)C(CC(C)C)C(=O)N(C)C(CC(C)C)C(=O)N(C)C(C(C)C)C(=O)N3C)O2)c1 (centres unmarked) [Compound 50A-o] | 1 to 100 µM
CCC1NC(=O)C(C2OC(Oc3ccc(N(C)C)cc3)CC2C)N(C)C(=O)C(C(C)C)N(C)C(=O)C(CC(C)C)N(C)C(=O)C(CC(C)C)N(C)C(=O)C(C)NC(=O)C(C)NC(=O)C(CC(C)C)N(C)C(=O)C(C(C)C)NC(=O)C(CC(C)C)N(C)C(=O)CN(C)C1=O (centres unmarked) [Compound 51A-o] | 1 to 100 µM
CCC1NC(=O)C(C2OC(Oc3cccc(OCc4ccccn4)c3)CC2C)N(C)C(=O)C(C(C)C)N(C)C(=O)C(CC(C)C)N(C)C(=O)C(CC(C)C)N(C)C(=O)C(C)NC(=O)C(C)NC(=O)C(CC(C)C)N(C)C(=O)C(C(C)C)NC(=O)C(CC(C)C)N(C)C(=O)CN(C)C1=O (centres unmarked) [Compound 52A-o] | 1 to 100 µM
CCC1NC(=O)C(C2OC(Oc3cccc(OCc4cccnc4)c3)CC2C)N(C)C(=O)C(C(C)C)N(C)C(=O)C(CC(C)C)N(C)C(=O)C(CC(C)C)N(C)C(=O)C(C)NC(=O)C(C)NC(=O)C(CC(C)C)N(C)C(=O)C(C(C)C)NC(=O)C(CC(C)C)N(C)C(=O)CN(C)C1=O (centres unmarked) [Compound 53A-o] | 10 µM
CCC1NC(=O)C(C2OC(Oc3cccc(OCc4ccncc4)c3)CC2C)N(C)C(=O)C(C(C)C)N(C)C(=O)C(CC(C)C)N(C)C(=O)C(CC(C)C)N(C)C(=O)C(C)NC(=O)C(C)NC(=O)C(CC(C)C)N(C)C(=O)C(C(C)C)NC(=O)C(CC(C)C)N(C)C(=O)CN(C)C1=O (centres unmarked) [Compound 54A-o] | 1 to 100 µM

Same assay, conditions: given as a range, marked * (asterisk not explained)

SMILES | IC50
CCC1NC(=O)C(C2OC(Oc3cc(OCCOC)cc(OCC4CCOCC4)c3)CC2C)N(C)C(=O)C(C(C)C)N(C)C(=O)C(CC(C)C)N(C)C(=O)C(CC(C)C)N(C)C(=O)C(C)NC(=O)C(C)NC(=O)C(CC(C)C)N(C)C(=O)C(C(C)C)NC(=O)C(CC(C)C)N(C)C(=O)CN(C)C1=O (centres unmarked) [Compound 55-o] | 1 to 100 µM
CCC1NC(=O)C(C2OC(Sc3cc(OCCOC)cc(OCC4CCOCC4)c3)CC2C)N(C)C(=O)C(C(C)C)N(C)C(=O)C(CC(C)C)N(C)C(=O)C(CC(C)C)N(C)C(=O)C(C)NC(=O)C(C)NC(=O)C(CC(C)C)N(C)C(=O)C(C(C)C)NC(=O)C(CC(C)C)N(C)C(=O)CN(C)C1=O (centres unmarked) [Compound 55] | 1 to 100 µM
CCC1NC(=O)C(C2OC(Oc3cc(OCCOC)cc(OCc4cccs4)c3)CC2C)N(C)C(=O)C(C(C)C)N(C)C(=O)C(CC(C)C)N(C)C(=O)C(CC(C)C)N(C)C(=O)C(C)NC(=O)C(C)NC(=O)C(CC(C)C)N(C)C(=O)C(C(C)C)NC(=O)C(CC(C)C)N(C)C(=O)CN(C)C1=O (centres unmarked) [Compound 56-o] | 1 to 100 µM
CCC1NC(=O)C(C2OC(Sc3cc(OCCOC)cc(OCc4cccs4)c3)CC2C)N(C)C(=O)C(C(C)C)N(C)C(=O)C(CC(C)C)N(C)C(=O)C(CC(C)C)N(C)C(=O)C(C)NC(=O)C(C)NC(=O)C(CC(C)C)N(C)C(=O)C(C(C)C)NC(=O)C(CC(C)C)N(C)C(=O)CN(C)C1=O (centres unmarked) [Compound 56] | 1 to 100 µM

Same assay, conditions: given as a range; assay not given

SMILES | IC50
CCC1NC(=O)C(C2OC(Sc3ccc(Cl)c(OCCOC)c3)CC2C)N(C)C(=O)C(C(C)C)N(C)C(=O)C(CC(C)C)N(C)C(=O)C(CC(C)C)N(C)C(=O)C(C)NC(=O)C(C)NC(=O)C(CC(C)C)N(C)C(=O)C(C(C)C)NC(=O)C(CC(C)C)N(C)C(=O)CN(C)C1=O [Compound 45A, [2-((2R,3R)-5-(4-chloro-3-(2-methoxyethoxy)phenylthio)-3-methyltetrahydrofuran-2-yl)-2-(methylamino)acetic acid]^1-cyclosporin A] | 0.001 to 1 µM
CCC1NC(=O)C(C2OC(Sc3ccc(Cl)c(OCCO)c3)CC2C)N(C)C(=O)C(C(C)C)N(C)C(=O)C(CC(C)C)N(C)C(=O)C(CC(C)C)N(C)C(=O)C(C)NC(=O)C(C)NC(=O)C(CC(C)C)N(C)C(=O)C(C(C)C)NC(=O)C(CC(C)C)N(C)C(=O)CN(C)C1=O [Compound 46A, [2-((2R,3R)-5-(4-chloro-3-(2-hydroxyethoxy)phenylthio)-3-methyltetrahydrofuran-2-yl)-2-(methylamino)acetic acid]^1-cyclosporin A] | 0.001 to 1 µM
CCC1NC(=O)C(C2OC(Sc3cccc(NC)c3)CC2C)N(C)C(=O)C(C(C)C)N(C)C(=O)C(CC(C)C)N(C)C(=O)C(CC(C)C)N(C)C(=O)C(C)NC(=O)C(C)NC(=O)C(CC(C)C)N(C)C(=O)C(C(C)C)NC(=O)C(CC(C)C)N(C)C(=O)CN(C)C1=O [Compound 47A, [2-((2R,3R)-3-methyl-5-(3-(methylamino)phenylthio)tetrahydrofuran-2-yl)-2-(methylamino)acetic acid]^1-cyclosporin A] | 0.001 to 1 µM
CCC1NC(=O)C(C2OC(Sc3cccc(NCc4ccccc4)c3)CC2C)N(C)C(=O)C(C(C)C)N(C)C(=O)C(CC(C)C)N(C)C(=O)C(CC(C)C)N(C)C(=O)C(C)NC(=O)C(C)NC(=O)C(CC(C)C)N(C)C(=O)C(C(C)C)NC(=O)C(CC(C)C)N(C)C(=O)CN(C)C1=O [Compound 48A, [2-((2R,3R)-5-(3-(benzylamino)phenylthio)-3-methyltetrahydrofuran-2-yl)-2-(methylamino)acetic acid]^1-cyclosporin A] | 0.001 to 1 µM
CCC1NC(=O)C(C2OC(Sc3cccc(N(C)CC)c3)CC2C)N(C)C(=O)C(C(C)C)N(C)C(=O)C(CC(C)C)N(C)C(=O)C(CC(C)C)N(C)C(=O)C(C)NC(=O)C(C)NC(=O)C(CC(C)C)N(C)C(=O)C(C(C)C)NC(=O)C(CC(C)C)N(C)C(=O)CN(C)C1=O [Compound 49A, [2-((2R,3R)-5-(3-(ethyl(methyl)amino)phenylthio)-3-methyltetrahydrofuran-2-yl)-2-(methylamino)acetic acid]^1-cyclosporin A] | 0.001 to 1 µM
CCCN(C)c1cccc(SC2CC(C)C(C3C(=O)NC(CC)C(=O)N(C)CC(=O)N(C)C(CC(C)C)C(=O)NC(C(C)C)C(=O)N(C)C(CC(C)C)C(=O)NC(C)C(=O)NC(C)C(=O)N(C)C(CC(C)C)C(=O)N(C)C(CC(C)C)C(=O)N(C)C(C(C)C)C(=O)N3C)O2)c1 [Compound 50A, [2-((2R,3R)-3-methyl-5-(3-(methyl(propyl)amino)phenylthio)tetrahydrofuran-2-yl)-2-(methylamino)acetic acid]^1-cyclosporin A] | 0.001 to 1 µM
CCC1NC(=O)C(C2OC(Sc3cccc(OCc4ccccn4)c3)CC2C)N(C)C(=O)C(C(C)C)N(C)C(=O)C(CC(C)C)N(C)C(=O)C(CC(C)C)N(C)C(=O)C(C)NC(=O)C(C)NC(=O)C(CC(C)C)N(C)C(=O)C(C(C)C)NC(=O)C(CC(C)C)N(C)C(=O)CN(C)C1=O [Compound 52A, [2-((2R,3R)-3-methyl-5-(3-(pyridin-2-ylmethoxy)phenylthio)tetrahydrofuran-2-yl)-2-(methylamino)acetic acid]^1-cyclosporin A] | 0.001 to 1 µM
CCC1NC(=O)C(C2OC(Sc3cccc(OCc4cccnc4)c3)CC2C)N(C)C(=O)C(C(C)C)N(C)C(=O)C(CC(C)C)N(C)C(=O)C(CC(C)C)N(C)C(=O)C(C)NC(=O)C(C)NC(=O)C(CC(C)C)N(C)C(=O)C(C(C)C)NC(=O)C(CC(C)C)N(C)C(=O)CN(C)C1=O [Compound 53A, [2-((2R,3R)-3-methyl-5-(3-(pyridin-3-ylmethoxy)phenylthio)tetrahydrofuran-2-yl)-2-(methylamino)acetic acid]^1-cyclosporin A] | 0.001 to 1 µM
CCC1NC(=O)C(C2OC(Sc3cccc(OCc4ccncc4)c3)CC2C)N(C)C(=O)C(C(C)C)N(C)C(=O)C(CC(C)C)N(C)C(=O)C(CC(C)C)N(C)C(=O)C(C)NC(=O)C(C)NC(=O)C(CC(C)C)N(C)C(=O)C(C(C)C)NC(=O)C(CC(C)C)N(C)C(=O)CN(C)C1=O [Compound 54A, [2-((2,3R)-3-methyl-5-(3-(pyridin-4-ylmethoxy)phenylthio)tetrahydrofuran-2-yl)-2-(methylamino)acetic acid]^1-cyclosporin A] | 0.001 to 1 µM

— patent publication US10961231B2, “NTCP inhibitors” (National Institute of Biological Sciences, Beijing, priority 2018, dated 2021)
